Experiments:
Type in all cases: in vivo
[1] = tested on: ragweed (common ragweed, Ambrosia elatior); assay: Test A preemergence; conditions: Ambrosia artemisiifolia, pre-emergence, 240 h, preemergence, read-out: Plant response rating, Ragweed
Summary of the method: (§1)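 Each rating is a visual injury score from 0 to 100 given about 10 d after treatment, judged against untreated controls kept alongside in the greenhouse. In loam soil–sand blend, seeds got a preemergence directed soil spray, while postemergence plants were 2 to 10 cm tall at spraying.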

[2] = tested on: pigweed (Amaranthus retroflexus); assay: Test A preemergence; conditions: Amaranthus retroflexus, pre-emergence, 240 h, preemergence, read-out: Plant response rating, Pigweed
Kochia (Kochia scoparia) [3] = assay: Test A preemergence; conditions: Bassia scoparia, pre-emergence, 240 h, preemergence, read-out: Plant response rating, Kochia
Summary of the method: as §1

[4] = tested on: barnyardgrass (Echinochloa crus-galli); assay: Test A preemergence; conditions: Echinochloa crus-galli, pre-emergence, 240 h, preemergence, read-out: Plant response rating, Barnyardgrass
Summary of the method: as §1

[5] = tested on: giant foxtail (Setaria faberii); assay: Test A preemergence; conditions: Setaria faberi, pre-emergence, 240 h, preemergence, read-out: Plant response rating, Foxtail, Giant
Summary of the method: as §1

[6] = tested on: ryegrass, Italian (Italian ryegrass, Lolium multiflorum); assay: Test A preemergence; conditions: Lolium multiflorum, pre-emergence, 240 h, preemergence, read-out: Plant response rating, Ryegrass, Italian
Summary of the method: as §1

[7] = tested on: ragweed (common ragweed, Ambrosia elatior); assay: Test A postemergence; conditions: Ambrosia artemisiifolia, post-emergence, 240 h, 125 g ai/ha, postemergence; visual injury after approximately 10 d; 0 to 100 scale (0 no effect, 100 complete control); read-out: Plant response rating, Ragweed
Summary of the method: as §1

[8] = tested on: Galium (catchweed bedstraw, Galium aparine); assay: Test A postemergence; conditions: Galium, post-emergence, 240 h, 125 g ai/ha, postemergence; visual injury after approximately 10 d; 0 to 100 scale (0 no effect, 100 complete control); read-out: Plant response rating, Galium
Summary of the method: as §1

[9] = tested on: pigweed (Amaranthus retroflexus); assay: Test A postemergence; conditions: Amaranthus retroflexus, post-emergence, 240 h, 125 g ai/ha, postemergence; visual injury after approximately 10 d; 0 to 100 scale (0 no effect, 100 complete control); read-out: Plant response rating, Pigweed
Summary of the method: as §1

[10] = tested on: wheat (Triticum aestivum); assay: Test A postemergence; conditions: Triticum aestivum, post-emergence, 240 h, 125 g ai/ha, postemergence; visual injury after approximately 10 d; 0 to 100 scale (0 no effect, 100 complete control); read-out: Plant response rating, Wheat
Summary of the method: as §1

Kochia (Kochia scoparia) [11] = assay: Test A postemergence; conditions: Bassia scoparia, post-emergence, 240 h, 125 g ai/ha, postemergence; visual injury after approximately 10 d; 0 to 100 scale (0 no effect, 100 complete control); read-out: Plant response rating, Kochia
Summary of the method: as §1

[12] = tested on: barnyardgrass (Echinochloa crus-galli); assay: Test A postemergence; conditions: Echinochloa crus-galli, post-emergence, 240 h, 125 g ai/ha, postemergence; visual injury after approximately 10 d; 0 to 100 scale (0 no effect, 100 complete control); read-out: Plant response rating, Barnyardgrass
Summary of the method: as §1

[13] = tested on: giant foxtail (Setaria faberii); assay: Test A postemergence; conditions: Setaria faberi, post-emergence, 240 h, 125 g ai/ha, postemergence; visual injury after approximately 10 d; 0 to 100 scale (0 no effect, 100 complete control); read-out: Plant response rating, Foxtail, Giant
Summary of the method: as §1

corn (Zea mays) = assay: Test A postemergence; conditions: Zea mays, post-emergence, 240 h, 125 g ai/ha, postemergence; visual injury after approximately 10 d; 0 to 100 scale (0 no effect, 100 complete control)
Summary of the method: as §1

[14] = tested on: ryegrass, Italian (Italian ryegrass, Lolium multiflorum); assay: Test A postemergence; conditions: Lolium multiflorum, post-emergence, 240 h, 125 g ai/ha, postemergence; visual injury after approximately 10 d; 0 to 100 scale (0 no effect, 100 complete control); read-out: Plant response rating, Ryegrass, Italian
Summary of the method: as §1

[15] = 125 g ai/ha, visual rating after approx. 10 d, 0 to 100 scale where 0 is no effect and 100 is complete control
[16] = 500 g ai/ha, 0 to 100 scale, 0 = no effect, 100 = complete control

C=CCN1C[C@H](c2ccc(OC)c(F)c2)[C@@H](C(=O)Nc2ccccc2S(C)(=O)=O)C1=O [Compound 724]
0%: pest or weed control at 125 g/ha [1, 15] | pest or weed control at 500 g/ha [1, 16] | pest or weed control at 125 g/ha [2, 15] | pest or weed control at 500 g/ha [2, 16] | pest or weed control at 125 g/ha (Kochia (Kochia scoparia) [3]; [15]) | pest or weed control at 500 g/ha (Kochia (Kochia scoparia) [3]; [16]) | pest or weed control at 125 g/ha [4, 15] | pest or weed control at 500 g/ha [4, 16] | pest or weed control at 125 g/ha [5, 15] | pest or weed control at 500 g/ha [5, 16] | pest or weed control at 125 g/ha [6, 15] | pest or weed control at 500 g/ha [6, 16] | pest or weed control at 125 g/ha [7] | pest or weed control at 125 g/ha [8] | pest or weed control at 125 g/ha [9] | plant injury at 125 g/ha [10] | pest or weed control at 125 g/ha (Kochia (Kochia scoparia) [11]) | pest or weed control at 125 g/ha [12] | pest or weed control at 125 g/ha [13] | Corn plant response rating (crop injury, 0 = no effect, 100 = complete kill) at 125 g/ha (corn (Zea mays)) | pest or weed control at 125 g/ha [14]
